Consider 15 substances from patent US20200247849A1, “PEPTIDE AGONISTS AND ANTAGONISTS OF TLR4 ACTIVATION” (PEPTICOM LTD, priority 2016, published 2020).

Non-standard residues stand in square brackets, D forms with d. No end group written: not given here. Nphe = O=C(O)CNCc1ccccc1

The assay deals with TLR4 with MD2 or CD14 co-receptor. Nature of the assay: Reporter gene (SEAP) PAMP assay in NIH3T3 cells expressing TLR4 with MD2 or CD14 co-receptor. Format: cell-based. Conditions: summary of FIGS. 6A-6V; for Co-Receptor/s: co-receptor (MD2/CD14) via which the effect occurs; for Activity: type of effect (activation/inhibition) on TLR4. From the text:
FIGS. 6A-6V show the dose response inhibitor/activator effects of the designed peptides using a reporter gene assay. The reporter gene assay is composed of NIH3T3 cells transfected with either MD2 or CD14 along with TLR4 and the NF-κB-inducible reporter gene Secreted Alkaline Phosphatase (SEAP) to monitor TLR4 activation (Burger-[…] al. 2010, A new cell-based innate immune receptor assay for the examination of receptor activity, ligand specificity, signaling pathways and the detection of pyrogens. […] The receptors are coupled to for the detection of inhibitory activity, cells were treated with the peptide prior to exposure to LPS and the response to LPS is measured at variable peptide doses (as labeled). The detection of cell activation was performed using the peptide alone, at variable doses, as indicated in the respective graphs. The following presents in more details the experimental procedures. Experimental setup: The cell-based Assay is performed with different NIH3T3 reporter cell lines (NIH 3T3 PRR SEAP-TLR4/CD14 or -TLR4/MD2) and the control cell line NIH 3T3 SEAP. The NIH3T3 SEAP cell line is used in order to determine the background of the alkaline phosphatase expression. It is a cell line stably transfected with only the reporter gene plasmid. For each assay a vial of the master cell bank is revitalized and seeded in a standard cell culture flask (75 cm^2 T-Flask) at day one. Cells are cultured in 20 ml culture media (DMEM supplemented with 10% FCS (heat inactivated), 50 units/ ml penicillin, 0.05 mg/ ml streptomycin and 2 mmol/ L L-glutamine). The cells are cultured at 37° C. in a 5% CO2 humidified atmosphere. At Day 1: For the PAMP Assay cells are seeded in a 96-well plate at a density of 0.3.10^5 cells/well in a final volume of 100 μl culture media (DMEM, 10% FCS (heat inactivated)). To ensure equal culture conditions the 96-well cell culture plates are placed side by side and cultivated in a humidified CO2 incubator (37° C. and 5% CO2). […] After a cultivation period of 24 h the media is removed and replaced with the respective volume of fresh media (DMEM, 0.5% FCS (heat inactivated)).The lyophilized peptides are stored in a freezer at -20° C. upon arrival. For the experiments they are dissolved in DMSO (to the highest possible concentration). Before opening the peptides are allowed to equilibrate to room temperature (in order to reduce the uptake of moisture). For each experiment the stock solution is diluted in DMEM to the appropriate working concentration. […] Sonication was also used to help dissolve the peptides. Immediately after replacing the media, the diluted peptides are applied in a serial dilution to the cells and directly after that the agonist is added to the cells. After adding peptide and […] the final volume in each well of a 96 well plate amounts 100 μl/well. The culture medium containing 0.5% FCS is used as a negative reference item. The induction is performed for 18 h at 37° C. and 5% CO2. At Day 3: To determine the final SEAP value, 50 μl of the supernatant is carefully transferred in a new 96-well plate (Greiner-F-plate) and 50 μl of the substrate (pNPP; p-nitrophenyl phosphate) is added. SEAP catalyzes the hydrolysis of pNPP to the final product para-nitrophenol (yellow) which can be detected by a photometric analysis using an UV-VIS reader at 405 nm. […] The results of FIGS. 6A-6V with respect to peptide activity are summarized in Table 1 above with respect to the type of effect of the respective peptide (activation/inhibition) and with respect to the corresponding co-receptor (MD2/CD14). Data concerning SEQ ID No. 22 with respect to co-receptor CD14 is in preparation.
In general terms: In a reporter assay the amount or activity of a reporter protein is the signal.

For “tiymmmtmkg (all D-amino acids, both isoleucine chiral centers in D-enantiomer) [SEQ ID No. 18]”, the Co-Receptor/s result was “CD14” and the Activity entry is recorded as “Activator”.

On to EWGWRMII (Activator) [SEQ ID No. 2], for which the Co-Receptor/s result is reported as “MD2/CD14” and the Activity result was “Activator”.

For ILYKSLKWM (Activator) [SEQ ID No. 5], the Co-Receptor/s entry is “MD2/CD14” and the Activity result was “Activator”.

As to “c[geldkftm] (all D-amino acids) (cyclo(G[dE][dL][dD][dK][dF][dT][dM]); SMILES CSCC[C@H]1NC(=O)[C@@H]([C@H](C)O)NC(=O)[C@@H](Cc2ccccc2)NC(=O)[C@@H](CCCCN)NC(=O)[C@@H](CC(=O)O)NC(=O)[C@@H](CC(C)C)NC(=O)[C@@H](CCC(=O)O)NC(=O)CNC1=O) [SEQ ID No. 21]”, the Co-Receptor/s entry is “MD2/CD14” and the Activity result was “Activator”.

Take “c[gwwwral] (all D-amino acids) (cyclo(G[dW][dW][dW][dR][dA][dL]); SMILES CC(C)C[C@H]1NC(=O)[C@@H](C)NC(=O)[C@@H](CCCNC(=N)N)NC(=O)[C@@H](Cc2c[nH]c3ccccc23)NC(=O)[C@@H](Cc2c[nH]c3ccccc23)NC(=O)[C@@H](Cc2c[nH]c3ccccc23)NC(=O)CNC1=O) [SEQ ID No. 20]”: the Co-Receptor/s result is listed as “MD2/CD14” and the Activity entry is “Inhibitor”.

Regarding “c[SWEFLW] (cyclic; Inhibitor, cyclic) [SEQ ID No. 13]”, the Co-Receptor/s result is on record as “MD2/CD14” and the Activity result is recorded as “Inhibitor”.

“RYETMSIMIKSGGKG (RYETMSIMIKSGGKY; Activator) [SEQ ID No. 1]”: the Co-Receptor/s entry is recorded as “MD2/CD14” and the Activity entry is “Activator”.

As to “wwikd (all D-amino acids, both isoleucine chiral centers in D-enantiomer) [SEQ ID No. 17]”, the Co-Receptor/s result was “MD2/CD14” and the Activity result is “Activator”.

“rmmmw (all D-amino acids, CH3 group replaces C-term) ([dR][dM][dM][dM][dW]-CH3) [SEQ ID No. 16]”: the Co-Receptor/s result is on record as “MD2/CD14” and the Activity entry is on record as “Activator”.

For “KKLMLII (at the C-terminus CH3 replace COOH) (KKLMLII-CH3) [SEQ ID No. 12]”, the Co-Receptor/s entry is on record as “MD2/CD14” and the Activity result is listed as “Inhibitor”.

Regarding “c[SIWDTMW] (cyclic; Inhibitor, cyclic) [SEQ ID No. 14]”, the Co-Receptor/s entry is reported as “MD2” and the Activity entry is reported as “Inhibitor”.

On to “c[gwlwrsl] (all D-amino acids) (cyclo(G[dW][dL][dW][dR][dS][dL]); SMILES CC(C)C[C@H]1NC(=O)[C@@H](CO)NC(=O)[C@@H](CCCNC(=N)N)NC(=O)[C@@H](Cc2c[nH]c3ccccc23)NC(=O)[C@@H](CC(C)C)NC(=O)[C@@H](Cc2c[nH]c3ccccc23)NC(=O)CNC1=O) [SEQ ID No. 19]”, for which the Co-Receptor/s result is reported as “MD2/CD14” and the Activity result is recorded as “Activator”.

For the substance “(N′) 1(S)Glu-2(S)Trp-3Gly-4(S)Trp-5(S)Arg-6(S)Met-7(R,S)Ile-8Bzl(Gly) (C′) (EWGWRMI[Nphe]; also: Ile7 (R,S)) [SEQ ID No. 2 (M1)]”, the Co-Receptor/s result is reported as “MD2/CD14” and the Activity result is “Activator”.

Turning to “c[IGFMMMKKEF] (cyclic; Activator, cyclic) [SEQ ID No. 8]”, the Co-Receptor/s entry was “MD2/CD14” and the Activity entry was “Activator”.

Regarding “c[gfwseeeksl] (all D-amino acids) (cyclo(G[dF][dW][dS][dE][dE][dE][dK][dS][dL]); SMILES CC(C)C[C@H]1NC(=O)[C@@H](CO)NC(=O)[C@@H](CCCCN)NC(=O)[C@@H](CCC(=O)O)NC(=O)[C@@H](CCC(=O)O)NC(=O)[C@@H](CCC(=O)O)NC(=O)[C@@H](CO)NC(=O)[C@@H](Cc2c[nH]c3ccccc23)NC(=O)[C@@H](Cc2ccccc2)NC(=O)CNC1=O) [SEQ ID No. 22]”, the Co-Receptor/s result is reported as “MD2/CD14” and the Activity entry is “Activator”.
